The values that follow come from patent publication US8637516B2 (IRM LLC, priority 2010, dated 2014).

pIC50: −log10 of the molar value.

Assay [1] addresses T1, Ba/F3 cells transformed with human Tel-TrkA (Homo sapiens, UniProt P04629).
T1 construct: expressed in transfected cells; host or cells: Ba/F3 murine hematopoietic progenitor cells (luciferase expressing); the other entry of the earlier key: ETV6 (P41212, Transcription factor ETV6)
Description: Proliferation of Ba/F3 cells transformed with human Tel-TrkA (Ba/F3 Tel-TrkA). The format is cell-based. The following applies: Table 1; 48 hours, Bright Glo luminescence; read-out: Ba/F3 Tel-TrkA. The source says:
(§1) Compound dilutions were made in 384 well plates.
(§2) The emited luminiscence is quantified using ViewLux (PerkinElmer).

The test system of assay [2] is parental Ba/F3 cells. Description: Proliferation of parental (untransformed, wt) Ba/F3 cells (BAF3/WT). Format: cell-based, murine. The following applies: Mus musculus, Table 1, parental cells with IL3, 48 hours. The method, then: as §1
Compounds were tested for their ability to inhibit the proliferation of wt Ba/F3 cells and Ba/F3 cells transformed with constitutively expressed luciferase reporter and BCR-ABL or Tel-FMS or other Tel fusion kinases (EGFR, JAK2, ALK, BMX, FGFR3, FGFR4, FGR2, FLT1, FLT3, IGF1R, INSR, KDR, KIT, LCK, LYN, MEK, MET, PDGFRα, PDGFRβ, RET, RON, ROS, SRC, SYK, TIE and TYRO) or BRafV600E. Parental Ba/F3 cells were maintained in media containing recombinant mouse IL3 and the kinase transformed Ba/F3 cells were maintained in media without IL-3. 7.5 nl of compounds were spotted to each well of 1536-well assay plates by Liquid handling System Echo 555 (Labcyte). 700 cells were then plated into each well of the assay plates in 7 uL culture media per well and compounds were tested at 0.17 nM to 10 uM in 3-fold serial dilutions. The cells were then incubated for 48 hours at 37° C. 3 uL of Bright-Glo® (Promega) was added to each well and the plates were read using ViewLux (PerkinElmer).
as §2

T1 sequence (P04629 510-796 limits assumed): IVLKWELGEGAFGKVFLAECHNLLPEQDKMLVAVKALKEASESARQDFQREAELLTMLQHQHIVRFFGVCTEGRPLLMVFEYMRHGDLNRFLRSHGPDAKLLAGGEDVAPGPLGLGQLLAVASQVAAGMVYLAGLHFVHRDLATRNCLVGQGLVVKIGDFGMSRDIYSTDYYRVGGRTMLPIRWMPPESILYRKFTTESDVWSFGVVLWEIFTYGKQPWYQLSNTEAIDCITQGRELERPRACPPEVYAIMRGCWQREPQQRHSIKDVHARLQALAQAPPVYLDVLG

With `COC(=O)[C@@H](CO)NC(=O)c1cnc2ccc(N3CCC[C@@H]3c3cccc(F)c3)nn12` [X-98], the pIC50 in assay [1] was 6.45; in assay [2] it was < 5.00.
Turning to `O=C(NCc1ccc(N2CC[C@@H](O)C2)nc1)c1cnc2ccc(N3CCC[C@@H]3c3cccc(F)c3)nn12` [X-99], the pIC50 in assay [1] is 6.14; in assay [2], < 5.00.
The corresponding values for `O=C(N[C@@H]1CCOC1=O)c1cnc2ccc(N3CCC[C@@H]3c3cccc(F)c3)nn12` [X-100] are 7.57 and < 5.00.
Taken in the same sequence, the figures for `O=C(NC(CO)(CO)CO)c1cnc2ccc(N3CCC[C@@H]3c3cccc(F)c3)nn12` [X-101] were 6.34 and < 5.00.
Taken in the same sequence, the figures for `CC(C)[C@H](CO)NC(=O)c1cnc2ccc(N3CCC[C@@H]3c3cccc(F)c3)nn12` [X-102] were 7.51 and < 5.00.
Take `CC(C)(C)[C@@H](CO)NC(=O)c1cnc2ccc(N3CCC[C@@H]3c3cccc(F)c3)nn12` [X-103]: the figures for the pIC50 in assay [1] and in assay [2] were 6.42 and < 5.00, respectively.
With `CC(C)C[C@@H](CO)NC(=O)c1cnc2ccc(N3CCC[C@@H]3c3cccc(F)c3)nn12` [X-104], the pIC50 in assay [1] is 6.16; in assay [2] it was < 5.00.
Taken in the same sequence, the figures for `O=C(NC[C@H](O)CO)c1cnc2ccc(N3CCC[C@@H]3c3cccc(F)c3)nn12` [X-105] were 6.41 and < 5.00.
Taken in the same sequence, the figures for `O=C(N[C@@H]1c2ccccc2C[C@H]1O)c1cnc2ccc(N3CCC[C@@H]3c3cccc(F)c3)nn12` [X-106] were 8.52 and < 5.00.
Take `CC(C)C[C@H](CO)NC(=O)c1cnc2ccc(N3CCC[C@@H]3c3cccc(F)c3)nn12` [X-107]: the pIC50 in assay [1] was 7.40; in assay [2], < 5.00.
On to `O=C(NCCC1CCCC1)c1cnc2ccc(N3CCC[C@@H]3c3cccc(F)c3)nn12` [X-108], for which the pIC50 in assay [1] was 6.72; in assay [2], 5.19.
Taken in the same sequence, the figures for `O=C(NCC1CCCC1)c1cnc2ccc(N3CCC[C@@H]3c3cccc(F)c3)nn12` [X-109] were 7.40 and 5.10.
Taken in the same sequence, the figures for `CC1(C)[C@H]2CC[C@@H](CNC(=O)c3cnc4ccc(N5CCC[C@@H]5c5cccc(F)c5)nn34)[C@@H]1C2` [X-110] were 6.68 and < 5.01.
Taken in the same sequence, the figures for `O=C(NCC(F)(F)F)c1cnc2ccc(N3CCCC3c3cccc(F)c3)nn12` (stereo not shown) [X-111] were 7.89 and < 5.00.
Regarding `O=C(NCCN1CCOCC1)c1cnc2ccc(N3C[C@@H](F)C[C@@H]3c3cccc(F)c3)nn12` [X-113], the pIC50 is 8.05 in assay [1] and < 5.00 in assay [2].
Taken in the same sequence, the figures for `O=C(NCC(F)F)c1cnc2ccc(N3C[C@@H](F)C[C@@H]3c3cccc(F)c3)nn12` [X-114] were 9.00 and 5.13.
In the case of `CC(C)(C)OC(=O)N1CCC(NC(=O)c2cnc3ccc(N4C[C@@H](F)C[C@@H]4c4cccc(F)c4)nn23)CC1` [X-115], the pIC50 in assay [1] is 9.00; in assay [2] it was 5.34.
Taken in the same sequence, the figures for `NC(=O)CNC(=O)c1cnc2ccc(N3C[C@@H](F)C[C@@H]3c3cccc(F)c3)nn12` [X-117] were 7.19 and < 5.00.
The corresponding values for `NS(=O)(=O)CCNC(=O)c1cnc2ccc(N3C[C@@H](F)CC3c3cccc(F)c3)nn12` (stereo partly shown) [X-118] are 7.27 and < 5.00.
The corresponding values for `O=C(NCCO)c1cnc2ccc(N3C[C@@H](F)C[C@@H]3c3cccc(F)c3)nn12` [X-119] are 8.52 and < 5.00.
Turning to `O=C(NC1CCNCC1)c1cnc2ccc(N3C[C@@H](F)C[C@@H]3c3cccc(F)c3)nn12` [X-120], the pIC50 in assay [1] is 6.48; in assay [2], < 5.00.
On to `CS(=O)(=O)N1CCC(NC(=O)c2cnc3ccc(N4C[C@@H](F)C[C@@H]4c4cccc(F)c4)nn23)CC1` [X-121], for which the results for the pIC50 in assay [1] and in assay [2] were 8.70 and 5.29, respectively.
Taken in the same sequence, the figures for `CCC(=O)c1cnc2ccc(N3CCC[C@@H]3c3cccc(F)c3)nn12` [X-123, (R)-1-(6-(2-(3-fluorophenyl)pyrrolidin-1-yl)imidazo[1,2-b]pyridazin-3-yl)propan-1-one] were 7.01 and < 5.00.
Taken in the same sequence, the figures for `O=C(c1cnc2ccc(N3CCC[C@@H]3c3cccc(F)c3)nn12)C(F)F` [X-124] were 6.07 and < 5.00.
The corresponding values for `CC(=O)c1cnc2ccc(N3CCC[C@@H]3c3cccc(F)c3)nn12` [X-125, (R)-1-(6-(2-(3-fluorophenyl)pyrrolidin-1-yl)imidazo[1,2-b]pyridazin-3-yl)ethanone] are 6.66 and < 5.00.
Regarding `O=C(C=Cc1cccc(F)c1)c1cnc2ccc(N3CCC[C@@H]3c3cccc(F)c3)nn12` [X-126, (R)-3-(3-fluorophenyl)-1-(6-(2-(3-fluorophenyl)pyrrolidin-1-yl)imidazo[1,2-b]pyridazin-3-yl)prop-2-en-1-one], the pIC50 in assay [1] was 7.66; in assay [2] it was 5.96.
The corresponding values for `O=C(CCc1cccc(F)c1)c1cnc2ccc(N3CCC[C@@H]3c3cccc(F)c3)nn12` [X-127, (R)-3-(3-fluorophenyl)-1-(6-(2-(3-fluorophenyl)pyrrolidin-1-yl)imidazo[1,2-b]pyridazin-3-yl)propan-1-one] are 7.42 and < 5.00.
The corresponding values for `O=C(/C=C/c1cccc(N2CCOCC2)n1)c1cnc2ccc(N3CCC[C@@H]3c3cccc(F)c3)nn12` [X-128] are 6.76 and 5.86.
Taken in the same sequence, the figures for `O=C(CCc1cccc(N2CCOCC2)n1)c1cnc2ccc(N3CCC[C@@H]3c3cccc(F)c3)nn12` [X-129] were 7.06 and < 5.01.
With `Cn1cccc1/C=C/C(=O)c1cnc2ccc(N3CCC[C@@H]3c3cccc(F)c3)nn12` [X-130], the pIC50 is 7.62 in assay [1] and < 5.00 in assay [2].
For `COc1cccc(/C=C/C(=O)c2cnc3ccc(N4CCC[C@@H]4c4cccc(F)c4)nn23)n1` [X-131], the pIC50 was 6.71 in assay [1] and 5.78 in assay [2].
For `CCONC(=O)c1cnc2ccc(N3C[C@@H](F)C[C@@H]3c3cccc(F)c3)nn12` [X-142, N-ethoxy-6-((2R,4S)-4-fluoro-2-(3-fluorophenyl)pyrrolidin-1-yl)imidazo[1,2-b]pyridazine-3-carboxamide], the pIC50 was 9.00 in assay [1] and 5.17 in assay [2].
The corresponding values for `O=C(NOCC1CC1)c1cnc2ccc(N3CCC[C@@H]3c3cccc(F)c3)nn12` [X-143] are 7.35 and < 5.00.
The corresponding values for `O=C(NOC1CCCCO1)c1cnc2ccc(N3CCC[C@@H]3c3cccc(F)c3)nn12` (stereo partly shown) [X-144] are 6.89 and < 5.00.
The corresponding values for `CC(C)(C)ONC(=O)c1cnc2ccc(N3CCC[C@@H]3c3cccc(F)c3)nn12` [X-145] are 7.48 and < 5.00.
As for `CN(C)CCONC(=O)c1cnc2ccc(N3CCC[C@@H]3c3cccc(F)c3)nn12` [X-146], the results for the pIC50 in assay [1] and in assay [2] were 6.52 and < 5.00, respectively.
For the molecule `O=C(NOCCO)c1cnc2ccc(N3CCC[C@@H]3c3cccc(F)c3)nn12` [X-147], the pIC50 was 7.51 in assay [1] and < 5.00 in assay [2].
`COCCONC(=O)c1cnc2ccc(N3CCC[C@H]3c3cccc(F)c3)nn12` [X-148]: the pIC50 in assay [1] is 7.55; in assay [2], < 5.00.
